Test results as given in PubChem BioAssay AID2060355 (Molecular Pharmacology Branch, DTP, NCI, 2025).
pIC50: −log10 of the molar value.

System: 485368-065-R4-J2-PDC spheroids with HUVEC/MSC, viability
Assay: Anticancer human tumor 485368-065-R4-J2-PDC patient-derived pancreatic carcinoma cell line growth inhibition [TAK]
Settings: for pIC50: curve of first compound; for viability, T/C: stronger effect = lower value
In short: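 Tumor cells were grown as spheroids with HUVEC and hMSC (60:25:15) and treated with targeted agents combined with TAK-243 or ipatasertib. Drugs were tested in half-log steps down from near the clinical Cmax, or from 10 microM where Cmax was unknown.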
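Note: spheroids exposed to compounds for seven days before readout.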
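Throughout, for viability, T/C: 100% = DMSO vehicle control wells.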

**Q.** COc1c(OCCCN2CCOCC2)ccc2c3n(c(=NC(=O)c4cnc(N)nc4)nc12)CCN3 + CC(C)NCC(C(=O)N1CCN(c2ncnc3c2C(C)CC3O)CC1)c1ccc(Cl)cc1 was tested. Which pIC50 (second compound 0.3 µM) did it give?
**A.** 6.88

**Q.** What about the pIC50 (second compound 0.949 µM) of the same compound?
**A.** 6.79

**Q.** What about the pIC50 (second compound 3 µM) of the same compound?
**A.** 7.12

**Q.** What about the pIC50 (second compound 9.49 µM) of the same compound?
**A.** 7.34

**Q.** What about the pIC50 (second compound 30 µM) of the same compound?
**A.** 7.82

**Q.** And the viability, T/C (second compound 0.3 µM, first compound 0.00316 µM)?
**A.** 91.7%

**Q.** What about the viability, T/C (second compound 0.3 µM, first compound 0.01 µM) of the same compound?
**A.** 76.2%

**Q.** What about the viability, T/C (second compound 0.3 µM, first compound 0.0316 µM) of the same compound?
**A.** 94.5%

**Q.** And the viability, T/C (second compound 0.3 µM, first compound 0.1 µM)?
**A.** 55.6%

**Q.** What about the viability, T/C (second compound 0.3 µM, first compound 0.316 µM) of the same compound?
**A.** 35.1%

**Q.** What about the viability, T/C (second compound 0.3 µM, first compound 1 µM) of the same compound?
**A.** 31.2%

**Q.** What about the viability, T/C (second compound 0.949 µM, first compound 0.00316 µM) of the same compound?
**A.** 96.3%

**Q.** What about the viability, T/C (second compound 0.949 µM, first compound 0.01 µM) of the same compound?
**A.** 100%

**Q.** What about the viability, T/C (second compound 0.949 µM, first compound 0.0316 µM) of the same compound?
**A.** 84.6%

**Q.** What about the viability, T/C (second compound 0.949 µM, first compound 0.1 µM) of the same compound?
**A.** 61.1%

**Q.** And the viability, T/C (second compound 0.949 µM, first compound 0.316 µM)?
**A.** 34.3%

**Q.** And the viability, T/C (second compound 0.949 µM, first compound 1 µM)?
**A.** 33.2%

**Q.** What about the viability, T/C (second compound 3 µM, first compound 0.00316 µM) of the same compound?
**A.** 95.9%

**Q.** And the viability, T/C (second compound 3 µM, first compound 0.01 µM)?
**A.** 86.8%

**Q.** What about the viability, T/C (second compound 3 µM, first compound 0.0316 µM) of the same compound?
**A.** 66.5%

**Q.** And the viability, T/C (second compound 3 µM, first compound 0.1 µM)?
**A.** 45.6%

**Q.** And the viability, T/C (second compound 3 µM, first compound 0.316 µM)?
**A.** 31.5%

**Q.** What about the viability, T/C (second compound 3 µM, first compound 1 µM) of the same compound?
**A.** 31.2%

**Q.** And the viability, T/C (second compound 9.49 µM, first compound 0.00316 µM)?
**A.** 81%

**Q.** And the viability, T/C (second compound 9.49 µM, first compound 0.01 µM)?
**A.** 72.8%

**Q.** What about the viability, T/C (second compound 9.49 µM, first compound 0.0316 µM) of the same compound?
**A.** 56.6%

**Q.** And the viability, T/C (second compound 9.49 µM, first compound 0.1 µM)?
**A.** 37.2%

**Q.** And the viability, T/C (second compound 9.49 µM, first compound 0.316 µM)?
**A.** 28.4%

**Q.** What about the viability, T/C (second compound 9.49 µM, first compound 1 µM) of the same compound?
**A.** 28%

**Q.** What about the viability, T/C (second compound 30 µM, first compound 0.00316 µM) of the same compound?
**A.** 60.4%

**Q.** What about the viability, T/C (second compound 30 µM, first compound 0.01 µM) of the same compound?
**A.** 56.5%

**Q.** What about the viability, T/C (second compound 30 µM, first compound 0.0316 µM) of the same compound?
**A.** 38.8%

**Q.** And the viability, T/C (second compound 30 µM, first compound 0.1 µM)?
**A.** 29.8%

**Q.** And the viability, T/C (second compound 30 µM, first compound 0.316 µM)?
**A.** 25.3%

**Q.** What about the viability, T/C (second compound 30 µM, first compound 1 µM) of the same compound?
**A.** 26.3%
